Laboratory results from patent US20230174485A1, “LIPOXYGENASE INHIBITORS” (SRI International, priority 2020, published 2023).
Several values for one entry are separate records, joined by “and”; a condition that tells them apart may be missing. Equal entries are not always repeated. Where two headings read alike, the source gives them in different places.

Tests used:
Assay type in all cases: biochemical
[1] = biological target: T1, recombinant 5-LOX (Homo sapiens, UniProt P09917); assay: 5-LOX fluorescent assay; settings: several values in one cell = repeat determinations; read-out: IC50 (μM) values for in vitro lipoxygenase inhibition, 5-LOX
T1 sequence (P09917 1-674): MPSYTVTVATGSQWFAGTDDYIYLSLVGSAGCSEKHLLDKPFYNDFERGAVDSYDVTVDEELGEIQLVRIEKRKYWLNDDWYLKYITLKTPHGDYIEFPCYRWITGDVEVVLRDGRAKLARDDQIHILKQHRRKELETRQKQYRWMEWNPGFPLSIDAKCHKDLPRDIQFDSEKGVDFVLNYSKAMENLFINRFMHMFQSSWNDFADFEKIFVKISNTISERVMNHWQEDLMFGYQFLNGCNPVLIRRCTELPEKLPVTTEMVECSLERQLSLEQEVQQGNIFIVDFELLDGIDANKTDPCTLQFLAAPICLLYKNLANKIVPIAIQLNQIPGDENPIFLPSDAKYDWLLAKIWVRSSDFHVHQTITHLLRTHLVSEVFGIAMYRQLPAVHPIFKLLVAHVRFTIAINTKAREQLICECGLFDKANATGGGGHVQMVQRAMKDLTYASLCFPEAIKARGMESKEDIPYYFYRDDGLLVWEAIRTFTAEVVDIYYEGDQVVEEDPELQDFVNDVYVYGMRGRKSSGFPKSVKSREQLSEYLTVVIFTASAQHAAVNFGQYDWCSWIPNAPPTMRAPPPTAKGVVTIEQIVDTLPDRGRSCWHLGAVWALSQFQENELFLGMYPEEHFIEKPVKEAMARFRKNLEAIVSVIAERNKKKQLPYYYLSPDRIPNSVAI
Description: 5-LOX FI assay Fluorescent Assay
The enzyme assay (100 μL) contained 50 mM Tris, pH 7.5, 0.1 mM EDTA, 0.3 mM CaCl2, 20 μM AA, 100 μM ATP, 1 μM DHR123, and recombinant 5-LOX cell lysate (0.5 μL/100 μL). Inhibitors (dissolved in DMSO) were plated at 1 μL into 96-well assay microplates followed by a 40 μL addition of a solution containing 5-LOX enzyme. Enzyme was pre-incubated with compounds for 15 mins. The assay was initiated by the addition of a 40 μL substrate solution containing AA and ATP, and 20 μL addition of a solution containing DHR123. Enzymatic reaction proceeded for 30 min with kinetic reading at 500 nm excitation & 536 nm emission in SpectraMax Paradigm (MolecularDevice). Percent inhibition was calculated for each compound dose for IC50 curve fitting using 4 Parameter Logistic Model or Sigmoidal Dose-Response Model.

[2] = biological target: T2, recombinant 12-LOX enzyme (Homo sapiens, UniProt P18054); assay: 12-LOX fluorescent assay; settings: several values in one cell = repeat determinations
T2 sequence (P18054 1-663): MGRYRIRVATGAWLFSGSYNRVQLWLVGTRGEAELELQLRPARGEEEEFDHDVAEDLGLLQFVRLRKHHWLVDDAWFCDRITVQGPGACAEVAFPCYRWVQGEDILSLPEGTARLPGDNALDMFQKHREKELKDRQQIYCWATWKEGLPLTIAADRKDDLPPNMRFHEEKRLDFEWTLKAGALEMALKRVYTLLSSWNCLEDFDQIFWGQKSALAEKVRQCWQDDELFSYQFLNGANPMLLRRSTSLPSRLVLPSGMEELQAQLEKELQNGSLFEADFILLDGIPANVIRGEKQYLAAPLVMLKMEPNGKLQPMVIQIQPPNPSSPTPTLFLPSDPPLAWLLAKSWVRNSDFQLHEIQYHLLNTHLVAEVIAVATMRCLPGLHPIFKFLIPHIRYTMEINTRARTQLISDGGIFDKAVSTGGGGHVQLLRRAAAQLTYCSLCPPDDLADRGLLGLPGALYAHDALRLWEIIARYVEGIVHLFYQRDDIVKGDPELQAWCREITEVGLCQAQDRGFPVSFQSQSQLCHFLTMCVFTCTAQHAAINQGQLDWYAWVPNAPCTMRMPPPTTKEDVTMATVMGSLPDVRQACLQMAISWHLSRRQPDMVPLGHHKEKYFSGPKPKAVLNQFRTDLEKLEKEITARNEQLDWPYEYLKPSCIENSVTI
Description: (§1) 12-LOX/15-LOX Fluorescent Assay
(§2) The enzyme assay (100 ul) contained 50 mM Tris, pH 7.5, 0.05% Tween-20, 20 μM AA/LA, 1 μM DHR123, and 100 nM recombinant 12-LOX enzyme/50 nM recombinant 15-LOX enzyme. Inhibitors (dissolved in DMSO) were plated at 1 μL into 96-well assay microplates followed by a 40 μL addition of a solution containing 12-LOX/15-LOX enzyme. Enzyme was pre-incubated with compounds for 15 mins. The assay was initiated by the addition of a 40 μL substrate solution containing AA/LA, and 20 μL addition of a solution containing DHR123. Enzymatic reaction proceeded for 30 min with kinetic reading at 500 nm excitation & 536 nm emission in SpectraMax Paradigm (MolecularDevice). Percent inhibition was calculated for each compound dose for IC50 curve fitting using 4 Parameter Logistic Model or Sigmoidal Dose-Response Model.

[3] = biological target: T3, recombinant 15-LOX enzyme (Homo sapiens, UniProt P16050); assay: 15-LOX fluorescent assay; settings: several values in one cell = repeat determinations
T3 sequence (P16050 1-662): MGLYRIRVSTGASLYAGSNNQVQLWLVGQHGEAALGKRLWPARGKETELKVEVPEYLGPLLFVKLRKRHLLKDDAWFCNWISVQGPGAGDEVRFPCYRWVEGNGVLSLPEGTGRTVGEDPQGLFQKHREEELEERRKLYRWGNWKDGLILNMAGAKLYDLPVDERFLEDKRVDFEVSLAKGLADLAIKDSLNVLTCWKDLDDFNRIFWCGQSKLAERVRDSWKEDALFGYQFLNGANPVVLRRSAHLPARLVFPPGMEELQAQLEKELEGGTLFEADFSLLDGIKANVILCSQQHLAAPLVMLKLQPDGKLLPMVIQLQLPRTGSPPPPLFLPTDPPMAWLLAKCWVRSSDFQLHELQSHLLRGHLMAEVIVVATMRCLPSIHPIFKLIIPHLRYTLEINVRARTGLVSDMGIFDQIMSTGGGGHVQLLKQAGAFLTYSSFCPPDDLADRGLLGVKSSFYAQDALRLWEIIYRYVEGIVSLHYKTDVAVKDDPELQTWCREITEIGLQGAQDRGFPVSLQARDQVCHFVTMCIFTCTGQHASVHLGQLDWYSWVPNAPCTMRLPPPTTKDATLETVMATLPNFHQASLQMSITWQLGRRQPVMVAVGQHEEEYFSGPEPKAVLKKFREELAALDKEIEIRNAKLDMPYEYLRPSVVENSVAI
Description: as §1, §2

[4] = read-out: IC50 (μM) values for in vitro lipoxygenase inhibition, 12-LOX
[5] = read-out: IC50 (μM) values for in vitro lipoxygenase inhibition, 15-LOX
[6] = IC50 (μM) values for in vitro lipoxygenase inhibition, 15-LOX

SMILES | IC50 [1] | IC50 [2, 4] | IC50 [3, 5] | IC50 [3, 6] | IC50 ([2]; IC50 (μM) values for in vitro lipoxygenase inhibition, 12-LOX)
Cc1cc(OCCn2cncn2)c2[nH]c3ccccc3c2c1 [SS20308-0017-01, 1-(2-(1H-1,2,4-triazol-1-yl)ethoxy)-3-methyl-9H-carbazole] | 6.06 µM | 2.85 µM | 3.49 µM | – | –
c1ccc(-c2cc3c([nH]c4ccccc43)c(OCCn3cncn3)n2)cc1 [SS20308-0018-01] | 47 µM | 4.07 µM | – | 1.39 µM | –
c1ccc2c(c1)[nH]c1c(OCCn3cncn3)c3c(cc12)[nH]c1ccccc13 [SS20308-0059-01, 6-(2-(1H-1,2,4-triazol-1-yl)ethoxy)-5,11-dihydroindolo[3,2-b]carbazole] | 0.04 µM and 0.03 µM | – | – | 0.03 µM and 0.02 µM | 0.03 µM and 0.02 µM
c1ccc(N(CCCn2cncn2)c2ccc3c(c2)[nH]c2ccccc23)cc1 [SS20308-0060-01, N-(3-(1H-1,2,4-triazol-1-yl)propyl)-N-phenyl-9H-carbazol-2-amine] | 0.62 µM | 0.99 µM | 2.19 µM | – | –
c1ccc(-c2cc3c(cc2NCCn2cncn2)[nH]c2ccccc23)cc1 [SS20308-0061-01, N-(2-(1H-1,2,4-triazol-1-yl)ethyl)-3-phenyl-9H-carbazol-2-amine] | 0.36 µM and 0.79 µM | 0.19 µM and 0.29 µM | – | 0.94 µM and 1.33 µM | –
Fc1ccc2[nH]c3cc(-c4ccccc4)c(NCCn4cncn4)cc3c2c1 [SS20308-0094-01, N-(2-(1H-1,2,4-triazol-1-yl)ethyl)-6-fluoro-2-phenyl-9H-carbazol-3-amine] | – | 30 nM and 40 nM (3×) | – | – | –
c1ccc(CN(CCCn2cncn2)c2ccc3[nH]c4ccccc4c3c2)cc1 [SS20308-0097-01, N-(3-(1H-1,2,4-triazol-1-yl)propyl)-N-benzyl-9H-carbazol-3-amine] | 33 µM and > 1 µM | – | – | – | –
CN(C)CCCc1c2[nH]c3ccccc3c2cc2[nH]c3ccccc3c12 [SS20308-0104-01, 3-(5,11-dihydroindolo[3,2-b]carbazol-6-yl)-N,N-dimethylpropan-1-amine] | – | – | – | 0.02 µM | –
c1ccc(N(CCn2cncn2)c2ccc3[nH]c4ccccc4c3c2)cc1 [SS20308-0108-01, N-(2-(1H-1,2,4-triazol-1-yl)ethyl)-N-phenyl-9H-carbazol-3-amine] | 0.55 µM and 0.26 µM and 0.35 µM | – | – | 1 µM and 0.41 µM and 0.86 µM | –
CC(C)CCOc1cc2c3ccccc3[nH]c2c2[nH]c3ccccc3c12 [SS20308-0127-01, 5-(isopentyloxy)-11,12-dihydroindolo[2,3-a]carbazole] | – | 0.09 µM and 0.04 µM and 0.14 µM | 0.12 µM and 0.08 µM and 0.17 µM | – | –
c1ccc(-c2cc3c(cc2NCCn2cncn2)Nc2ccccc2CC3)cc1 [SS20308-0152-01, N-(2-(1H-1,2,4-triazol-1-yl)ethyl)-2-phenyl-10,11-dihydro-5H-dibenzo[b,f]azepin-3-amine] | – | 0.05 µM and 0.08 µM | 0.08 µM and 0.2 µM | – | –
CN(C)CCCc1c2[nH]c3ccc(F)cc3c2c(F)c2[nH]c3ccc(F)cc3c12 [SS20308-0163-01, N,N-dimethyl-3-(2,8,12-trifluoro-5,11-dihydroindolo[3,2-b]carbazol-6-yl)propan-1-amine] | 20 nM (2×) and 40 nM and 50 nM and 10 nM | – | – | – | –
CN(C)CCc1cc(Nc2ccc(Cl)cc2)cc2c1[nH]c1ccccc12 [SS20308-0257-01, N-(4-chlorophenyl)-1-(2-(dimethylamino)ethyl)-9H-carbazol-3-amine] | 0.01 µM and 0.04 µM | – | – | – | –

Continued, in another order:

IC50 [1] | IC50 [2, 4] | IC50 [3, 5] | IC50 [3, 6] | SMILES | IC50 ([2]; IC50 (μM) values for in vitro lipoxygenase inhibition, 12-LOX)
20.8 µM | 8.04 µM | 4.33 µM | – | COc1cccc2c1[nH]c1ccc(F)cc12 [SS20308-0002-01, 6-fluoro-1-methoxy-9H-carbazole] | –
– | 3.19 µM | 2.55 µM | – | CN(C)CCOc1c(O)ccc2c1[nH]c1ccc(F)cc12 [SS20308-0004-01, 1-(2-(dimethylamino)ethoxy)-6-fluoro-9H-carbazol-2-ol] | –
32.2 µM | 22 µM | – | 8.64 µM | COc1ccc2c([nH]c3ccc(F)cc32)c1OCCN(C)C [SS20308-0007-01, 2-(6-fluoro-2-methoxy-9H-carbazol-1-yloxy)-N,N-dimethylethanamine] | –
0.27 µM | 0.21 µM | 15.9 µM | – | CN(C)CCOc1c(Nc2ccccc2)ccc2c1[nH]c1ccc(F)cc12 [SS20308-0032-01, 1-(2-(dimethylamino)ethoxy)-6-fluoro-N-phenyl-9H-carbazol-2-amine] | –
0.35 µM | 0.4 µM | 0.8 µM | – | CN(C)CCOc1c(NCc2ccccc2)ccc2c1[nH]c1ccc(F)cc12 [SS20308-0036-01, N-benzyl-1-(2-(dimethylamino)ethoxy)-6-fluoro-9H-carbazol-2-amine] | –
0.63 µM | 0.62 µM | 0.97 µM | – | CN(C)CCOc1cccc2c1-c1[nH]c3ccccc3c1CS2 [SS20308-0046-01, 2-(6,11-dihydrothiochromeno[4,3-b]indol-1-yloxy)-N,N-dimethylethanamine] | –
0.36 µM and 0.82 µM | 0.36 µM and 0.49 µM | – | 1.13 µM and 1.93 µM | CN(C)CCOc1c(NCc2ccccc2)ccc2c1[nH]c1ncccc12 [SS20308-0047-01, N-benzyl-8-(2-(dimethylamino)ethoxy)-9H-pyrido[2,3-b]indol-7-amine] | –
6.83 µM | 7.6 µM | 1.82 µM | – | CN(C)CCOc1cc(Oc2ccccc2)cc2c1[nH]c1ccc(F)cc12 [SS20308-0054-01] | –
– | 0.05 µM and 0.11 µM | – | 0.02 µM and 0.04 µM | CN(C)CCOc1c2[nH]c3ccccc3c2c(F)c2[nH]c3ccccc3c12 [SS20308-0102-01, 2-(12-fluoro-5,11-dihydroindolo[3,2-b]carbazol-6-yloxy)-N,N-dimethylethanamine] | –
